In the oligonucleotide strings, read from the 5' end, every base follows the letter of its sugar. An asterisk marks phosphorothioate; unmarked linkages are phosphodiester. Other units and linkages are bracketed, terminal groups are in braces. A string of capitals states the bases alone. d = 2'-deoxy (DNA); m = 2'-O-methyl
Molecular target: T1, human TLR9 (Homo sapiens, UniProt Q9NR96)
T1 construct: HA; host or cells: 293XL-hTLR9-HA (HEK293)
T1 sequence (Q9NR96 26-1032): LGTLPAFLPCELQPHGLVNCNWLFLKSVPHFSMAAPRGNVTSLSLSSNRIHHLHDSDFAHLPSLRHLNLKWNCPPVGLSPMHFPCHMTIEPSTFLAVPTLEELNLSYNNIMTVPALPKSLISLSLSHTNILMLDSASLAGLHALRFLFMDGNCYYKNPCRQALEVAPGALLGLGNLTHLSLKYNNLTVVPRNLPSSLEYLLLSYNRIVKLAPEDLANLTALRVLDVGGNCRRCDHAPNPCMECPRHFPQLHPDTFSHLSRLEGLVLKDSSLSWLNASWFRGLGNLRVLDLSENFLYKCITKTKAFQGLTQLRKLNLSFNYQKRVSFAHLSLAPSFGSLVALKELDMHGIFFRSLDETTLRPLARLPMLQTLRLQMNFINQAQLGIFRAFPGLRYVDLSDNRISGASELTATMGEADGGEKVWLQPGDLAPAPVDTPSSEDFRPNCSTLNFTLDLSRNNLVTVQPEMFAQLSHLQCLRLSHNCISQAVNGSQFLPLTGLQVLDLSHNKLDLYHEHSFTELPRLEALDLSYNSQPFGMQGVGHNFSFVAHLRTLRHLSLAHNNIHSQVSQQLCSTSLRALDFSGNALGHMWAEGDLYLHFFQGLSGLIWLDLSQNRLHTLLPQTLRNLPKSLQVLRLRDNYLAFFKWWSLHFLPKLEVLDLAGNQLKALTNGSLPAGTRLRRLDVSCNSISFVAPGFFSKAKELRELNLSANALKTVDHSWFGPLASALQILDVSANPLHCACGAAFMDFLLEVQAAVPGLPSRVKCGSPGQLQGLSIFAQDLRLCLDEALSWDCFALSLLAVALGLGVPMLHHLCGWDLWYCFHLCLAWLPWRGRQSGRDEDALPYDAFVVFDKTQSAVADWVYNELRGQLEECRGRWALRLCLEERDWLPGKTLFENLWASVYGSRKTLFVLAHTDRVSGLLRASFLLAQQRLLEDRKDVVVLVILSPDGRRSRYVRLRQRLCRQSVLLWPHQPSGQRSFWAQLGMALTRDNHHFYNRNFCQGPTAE
Test: HEK-TLR9 NF-κB-luciferase reporter, ODN2006 stimulation
Format: cell-based
Details: for TLR9-500 nM: averaged NF-κB-Luciferase relative to ODN2006: HEK-TLR9, 500 nM ASO 45 min, then 200 nM ODN2006 overnight, percentage of ODN2006 only; for TLR9 100 nM: MOE-modified ASO at 100 nM; for TLR9 100 nM / TLR9 500 nM: averaged NF-κB-Luciferase relative to ODN2006 condition; for TLR9 500 nM: MOE-modified ASO at 500 nM

Substance	TLR9-500 nM: averaged NF-κB-Luciferase relative to ODN2006 [%]	TLR9 100 nM	TLR9 500 nM
mU*mG*mG*mC*mG*T*A*G*T*T*T*C*T*C*T*mU*mC*mC*mU*mC (mU*mG*mG*mC*mG*dT*dA*dG*dT*dT*dT*dC*dT*dC*dT*mU*mC*mC*mU*mC; antisense) [[LINC-PINT]937.1]	79.89		
mC*mA*mC*mC*mC*T*T*C*T*C*T*C*T*G*G*mU*mC*mC*mC*mA (CACCCTTCTCTCTGGUCCCA; antisense; sugars from the 5' end m5 d10 m5, all phosphorothioate, methylation of C not given here) [[LINC-PINT]116]	102.85		
mA*mA*mA*mU*mG*T*C*C*T*G*G*C*C*C*T*mC*mA*mC*mU*mG (mA*mA*mA*mU*mG*dT*dC*dC*dT*dG*dG*dC*dC*dC*dT*mC*mA*mC*mU*mG) [[LINC-PINT]148.1]	46.72		
mG*mU*mC*mU*mC*C*T*C*C*A*C*A*C*C*C*mU*mU*mC*mU*mC (mG*mU*mC*mU*mC*dC*dT*dC*dC*dA*dC*dA*dC*dC*dC*mU*mU*mC*mU*mC; antisense) [[LINC-PINT]126]	77.09		
mG*mU*mU*mC*mA*G*T*C*A*G*A*T*C*G*C*mU*mG*mG*mG*mA (mG*mU*mU*mC*mA*dG*dT*dC*dA*dG*dA*dT*dC*dG*dC*mU*mG*mG*mG*mA) [[LINC-PINT]412 KL]	77.50		
mC*mA*mG*mG*mC*C*T*C*C*A*G*T*G*T*C*mU*mU*mC*mU*mC (mC*mA*mG*mG*mC*dC*dT*dC*dC*dA*dG*dT*dG*dT*dC*mU*mU*mC*mU*mC; antisense) [[CDKN2B-AS1]2219]	66.99		
mA*mA*mA*mG*mA*T*T*A*T*C*T*T*C*T*T*mU*mU*mA*mA*mU (mA*mA*mA*mG*mA*dT*dT*dA*dT*dC*dT*dT*dC*dT*dT*mU*mU*mA*mA*mU) [[CDKN2B-AS1]2132]	63.14		
mC*mA*mC*mU*mG*T*A*T*T*T*T*A*T*T*A*mC*mA*mG*mA*mA (mC*mA*mC*mU*mG*dT*dA*dT*dT*dT*dT*dA*dT*dT*dA*mC*mA*mG*mA*mA; antisense) [[LINC-PINT]2990]	117.42		
GTCCAAGATCAGCAGTCTCA (antisense; 2'-MOE modified, pattern not given here) [CTNN2B-2341 MOE]		0.430	0.535
GGTTTTGGCTGGGATCAAGT (antisense; 2'-MOE modified, pattern not given here) [CAMSAP1-4697 MOE]		0.381	0.200
mU*mG*mA*mU*mG*A*T*G*C*T*T*G*C*A*G*mG*mA*mG*mG*mC (mU*mG*mA*mU*mG*dA*dT*dG*dC*dT*dT*dG*dC*dA*dG*mG*mA*mG*mG*mC) [[LINC-PINT|283.1]	65.76		
mU*mU*mG*mU*mG*A*A*A*A*G*A*T*T*A*T*mC*mU*mU*mC*mU (mU*mU*mG*mU*mG*dA*dA*dA*dA*dG*dA*dT*dT*dA*dT*mC*mU*mU*mC*mU) [[CDKN2B-AS1]2138]	61.15		
mG*mG*mG*mU*mC*T*C*C*T*C*C*A*C*A*C*mC*mC*mU*mU*mC (GGGUCTCCTCCACACCCUUC; antisense; sugars from the 5' end m5 d10 m5, all phosphorothioate, methylation of C not given here) [[LINC-PINT]128]	94.51		
TTTGCACACTTCGTACCCAA (antisense; 2'-MOE modified, pattern not given here) [CAMSAP1-4916 MOE]		0.735	0.514
GGGTATCGAAAGAGTCTGGA (antisense; 2'-MOE modified, pattern not given here) [EGFR-3908 MOE]		0.349	0.203
mG*mU*mC*mA*mA*A*C*C*T*A*G*A*A*A*G*mA*mA*mG*mC*mA (mG*mU*mC*mA*mA*dA*dC*dC*dT*dA*dG*dA*dA*dA*dG*mA*mA*mG*mC*mA; antisense) [[CDKN2B-AS1]1528]	68.13		
mG*mG*mU*mC*mU*C*C*T*C*C*A*C*A*C*C*mC*mU*mU*mC*mU (mG*mG*mU*mC*mU*dC*dC*dT*dC*dC*dA*dC*dA*dC*dC*mC*mU*mU*mC*mU; antisense) [[LINC-PINT]127]	77.91		
mG*mA*mA*mA*mA*G*A*T*T*A*T*C*T*T*C*mU*mU*mU*mU*mA (GAAAAGATTATCTTCUUUUA; sugars from the 5' end m5 d10 m5, all phosphorothioate, methylation of C not given here) [[CDKN2B-AS1]2134]	61.11		
mU*mC*mU*mC*mU*G*G*T*C*C*C*A*T*C*C*mC*mU*mU*mC*mU (UCUCUGGTCCCATCCCUUCU; antisense; sugars from the 5' end m5 d10 m5, all phosphorothioate, methylation of C not given here) [[LINC-PINT]108]	100.51		
mC*mU*mU*mC*mU*C*T*C*T*G*G*T*C*C*C*mA*mU*mC*mC*mC (mC*mU*mU*mC*mU*dC*dT*dC*dT*dG*dG*dT*dC*dC*dC*mA*mU*mC*mC*mC) [[LINC-PINT]112]	64.35		
mA*mC*mC*mC*mU*T*C*T*C*T*C*T*G*G*T*mC*mC*mC*mA*mU (mA*mC*mC*mC*mU*dT*dC*dT*dC*dT*dC*dT*dG*dG*dT*mC*mC*mC*mA*mU; antisense) [[LINC-PINT]115]	32.00		
mU*mC*mU*mC*mC*A*T*G*T*C*C*C*A*G*G*mC*mC*mU*mC*mC (mU*mC*mU*mC*mC*dA*dT*dG*dT*dC*dC*dC*dA*dG*dG*mC*mC*mU*mC*mC; antisense) [[CDKN2B-AS1]2230]	118.93		
mG*mG*mU*mC*mC*C*A*T*C*C*C*T*T*C*T*mG*mC*mU*mG*mC (GGUCCCATCCCTTCTGCUGC; sugars from the 5' end m5 d10 m5, all phosphorothioate, methylation of C not given here) [[LINC-PINT]103]	88.75		
mA*mG*mG*mC*mC*T*C*C*A*G*T*G*T*C*T*mU*mC*mU*mC*mC (mA*mG*mG*mC*mC*dT*dC*dC*dA*dG*dT*dG*dT*dC*dT*mU*mC*mU*mC*mC; antisense) [[CDKN2B-AS1]2218]	81.24		
mC*mC*mU*mU*mC*T*G*C*T*G*C*C*A*A*G*mC*mC*mC*mC*mA (mC*mC*mU*mU*mC*dT*dG*dC*dT*dG*dC*dC*dA*dA*dG*mC*mC*mC*mC*mA; antisense) [[LINC-PINT]94]	96.69		
mC*mC*mC*mU*mU*C*T*C*T*C*T*G*G*T*C*mC*mC*mA*mU*mC (mC*mC*mC*mU*mU*dC*dT*dC*dT*dC*dT*dG*dG*dT*dC*mC*mC*mA*mU*mC; antisense) [[LINC-PINT]114]	62.09		
mC*mU*mU*mU*mA*T*A*T*T*A*C*A*A*A*G*mC*mU*mA*mC*mU (mC*mU*mU*mU*mA*dT*dA*dT*dT*dA*dC*dA*dA*dA*dG*mC*mU*mA*mC*mU; antisense) [[LINC-PINT]2755]	84.43		
TGGCAGGCTCAGTGATGTCT (antisense; 2'-MOE modified, pattern not given here) [CTNN2B-1642 MOE]		0.722	0.479
mC*mA*mA*mG*mC*C*C*C*A*G*C*G*T*T*C*mC*mU*mC*mC*mG (mC*mA*mA*mG*mC*dC*dC*dC*dA*dG*dC*dG*dT*dT*dC*mC*mU*mC*mC*mG; antisense) [[LINC-PINT]83.1]	93.79		
mG*mU*mC*mC*mC*A*T*C*C*C*T*T*C*T*G*mC*mU*mG*mC*mC (GUCCCATCCCTTCTGCUGCC; antisense; sugars from the 5' end m5 d10 m5, all phosphorothioate, methylation of C not given here) [[LINC-PINT]102]	101.22		

From patent US20240384268A1, “Oligonucleotides” (Hudson Institute of Medical Research, priority 2021, published 2024)
